Laboratory results from patent US10975352B2, “Methods of enhancing cell survival of stem cells” (The Scripps Research Institute, priority 2008, dated 2021).
Values belong to the compound of their own block, whether it stands above or below them.

What was measured:
[1] = tested on: hESCs; experiment: Cell death analysis of dissociated hESCs in suspension culture; format: cell-based, human
Text: hESCs are known to be difficult in forming embryoid bodies (EBs) in suspension culture after single cell dissociation due to extensive cell death. Thus, we also tested whether Tzv or Ptn could promote survival of dissociated hESCs in suspension. […] Because cell aggregation is most often mediated through cell-cell adhesions and E-cadherin is the primary cell-cell adhesion molecule, as well as highly expressed in hESCs (Eastham, A. M. et al., Cancer Res 67 (23): 11254-11262 (2007)), we tested the effect of a specific E-cadherin blocking antibody on multicellular aggregate formation.
The hESCs under different treatments were dissociated by trypsin and fixed by 4% paraformaldehyde. And the staining was carried out according to the manufacturer's instructions (MBL Laboratories, Watertown, Mass.). After staining, samples were analysed by flow cytometry using a FACS Calibur flow cytometer (BD).

[2] = tested on: hESCs; experiment: ALP positive colony formation / low-density survival assay of dissociated hESCs on Matrigel; format: cell-based, human; details: for Activity (% ALP positive colony formation by hESCs): Ratio of ALP positive colonies vs. total initially seeded cells
Method: Human ESC lines H1, HUES7 and HUES9 were cultured on irradiated MEF feeder cells in DMEM-F12 supplemented with 2 mM L-glutamine, lx nonessential amino acids, 20% serum replacement (Invitrogen) and 10 ng/ml basic Fibroblast growth factor (Invitrogen). Chemically-defined and feeder-free hESC culture was described previously (Yao, S. et al., Proc Natl Acad Sci USA 103 (18):6907-6912 (2006)). Briefly, hESCs were grown on Matrigel-coated tissue culture plates in N2B27-CDM (DMEM-F12 supplemented with 1×N2 supplements, lx B27 supplements, 2 mM L-glutamine, 0.11 mM 2-mercaptoethanol, lx nonessential amino acids, and 0.5 mg/ml BSA (fraction V)) and 20 ng/ml bFGF. Human ESCs were passaged every 5-6 days with 0.05% trypsin.
For clonal survival assays, single hESCs were diluted to clonal density and plated onto 96-well Matrigel-coated plate. For low-density survival assays, 500 cells were plated onto 96-well Matrigel-coated plate. To visualize hESC colonies, cultures were fixed in 4% paraformaldehyde in PBS for 5 min, washed once in PBS, then stained for alkaline phosphatase activity as described in manufacturer's instructions. ALP positive colonies were counted on an inverted microscope.
ALP detection kit and integrin antibodies were from Chemicon. AG825 (Erb2 inhibitor), AG1478 (EGFR inhibitor), PPP (IGFR1 inhibitor) were purchased from Calbiochem. Antibodies raised against the intracytoplasmic tail of E-cadherins (Transduction Laboratories, Lexington, Ky.) were used for immunoprecipitation. The antibody TS2/16 was from Pierce. Antibodies to the extracellular domain of E-cadherin molecule were from Zymed (Carlsbad). Antibodies against extracellular signal-regulated kinase/MAPK, EGFR1, ERB2, GADPH and phosphorylated form of AKT were from Cell Signaling. Mouse monoclonal anti-phosphotyrosine (4G-10 clone) was from Upstate Biotechnology. Ptn and Tzv were added to culture medium at 2 μM. […]

[3] = tested on: growth factor receptors, AKT and ERK; experiment: Western blot of phosphorylation status in hESCs; format: cell-based, human
Text: Interplay between physical/structural environment and growth factor plays a very important role in cell fate regulation (Comoglio, P. M., Boccaccio, C., & Trusolino, L., Curr Opin Cell Biol 15 (5):565-571 (2003)). To examine whether growth factors are involved in integrin-mediated hESC survival, we treated dissociated hESCs with Tzv or Ptn together with individual highly specific growth factor receptor inhibitors. […] Similarly inhibition of FGFR, IGFR, EGFR1 or Erb2 also greatly abolished Tzv-induced hESC survival in suspension culture.
Phosphatidylinositol-3-kinase (PI-3K) signaling and MAPK/ERK are major regulators for hESC self-renewal (Armstrong, L. et al., Hum Mol Genet 15 (11): 1894-1913 (2006); Paling, N. R. et al., J Biol Chem 279 (46):48063-48070 (2004); Pyle, A. D., Lock, L. F., & Donovan, P. J., Nat Biotechnol 24 (3):344-350 (2006); Li, J. et al., Differentiation 75 (4):299-307 (2007)). Phosphorylation of ERK and AKT, a downstream effector of PI-3K, were increased upon treatment of dissociated hESCs with Ptn, and this increase was abolished by integrin blocking antibody (FIG. 4e,f). Moreover, activation of AKT and ERK by Ptn was blocked by inhibitors of FGFR, IGFR, EGFR or Erb2 (FIG. 4g and data not shown).

[4] = tested on: stem cells; experiment: Survival and anti-differentiation of stem cells ex vivo; format: cell-based; details: human and mouse embryonic, neural, skin, mesenchymal, hematopoietic, stromal and epithelial stem cells; contact immediately after isolation
Text: In some embodiments, the invention provides methods of promoting survival and anti-differentiation in stem cells ex-vivo.

[5] = tested on: hESCs; experiment: Karyotyping (G-banding) of long-term expanded hESCs; format: cell-based, human; details: more than 20 generations; chemically-defined medium
Method: Teratoma formation experiments were performed by injecting 3-5 million hESCs (maintained in the presence of compounds Tvz or Ptn) under the kidney capsule of nude mice. After 4-5 weeks, all mice developed teratomas, which were removed and then immunohistologically analyzed by The Scripps Research Institute Research Histology Service and Animal Resources. Compounds treated cells were karyotyped by standard G-banding at the Children's Hospital Oakland, Cytogenetics Laboratory. No chromosomal abnormality was found in the 10 randomly picked nuclei.

[6] = tested on: epithelial to mesenchymal transition/EMT; experiment: Induction of MET / inhibition of EMT; format: cell-based
[7] = tested on: hESCs; experiment: Cell adhesion assay; format: cell-based, human
Method: Cell adhesion assays were performed in 96-well microtiter plates coated with Matrigel. After trypsin, hESCs were resuspended in the chemically-defined media containing the desired compounds. Cells were then added to the microtiter wells and incubated for 3 h at 37° C. Unbound and loosely bound cells were removed by shaking and washing, and the remaining cells were then fixed immediately. The wells were washed 3 times with 200 μl of H2O, and attached cells were stained with Crystal Violet (Sigma). The absorbance of each well at 570 nm was then measured. For experiments with blocking antibodies, cells were pre-incubated with antibodies on ice for 30 min, and adhesion assays were performed in the presence of antibodies. Each sample was assayed independently for three times.

[8] = tested on: β1 integrin; experiment: Activated β1 integrin (HUTS-21 binding; flow cytometry, immunostaining); format: cell-based, human; details: PMA 10 nM; immunostaining of active β1 integrins
Text: To gain insights into the mechanism of β1 integrin regulation by Tzv and Ptn, we investigated whether the compounds' effect is due to changes of integrin expression. In contrast to E-cadherin, β1 integrin was not cleaved by trypsin. […] Thus, Tzv and Ptn are likely to affect cell adhesion by modulating integrin activity (FIG. 3 d,e). To examine the effects of compound treatment on the activity of β1 integrin, we used the monoclonal antibody HUTS-21, which specifically binds to the activated form of the 131 integrin (Luque, A. et al., J Biol Chem 271 (19):11067-11075 (1996)).
To assess the expression of E-cadherin, activated integrin and SSEA4, dissociated cells (3×10^5) were washed with PBS and resuspended in PBS containing 2% goat serum. Cells were then incubated with the appropriate antibody for 1 h at 4° C., washed with the blocking solution, and labeled with FITC-conjugated secondary antibody for 30 min at 4° C. Cells were then washed and analyzed on a FACS Calibur flow cytometer.

- karyotype of hESCs serially passaged in compound-containing medium [5]: normal karyotype
SMILES: O=S(=O)(NCC1CC1)c1ccc(Nc2nccc(N3CCCc4cc(O)ccc43)n2)cc1 [Ptn, N-(cyclopropylmethyl)-4-(4-(6-hydroxy-3,4-dihydroquinolin-1(2H)-yl)pyrimidin-2-ylamino)benzenesulfonamide]
- survival of dissociated hESCs in suspension culture [1]: had no effect
- survival of dissociated hESCs in adherent culture ([2]; adherent culture (e.g. Matrigel-coated plate)): promoted survival
- phosphorylation of ERK and AKT ([3]; dissociated hESCs): increased
- phosphorylation of growth factor receptor ([3]; hESCs treated for 2 h, DMSO control): significantly increased the phosphorylation
- survival and anti-differentiation of stem cells [4]: effective in promoting survival and anti-differentiation
- MET induction and EMT inhibition [6]: can induce MET (the reverse of EMT) and inhibit EMT
- adhesion of dissociated hESCs to Matrigel or laminin [7]: dramatically increased adhesion
- adhesion of hESCs to gelatin or poly-lysine [7]: not affected

SMILES: O=S(=O)(NC1CC1)c1ccc(Nc2nccc(N3CCc4ccccc43)n2)cc1
- Activity (% ALP positive colony formation by hESCs) [2]: 6.2%

SMILES: O=S(=O)(NCC1CC1)c1ccc(Nc2nccc(N3Cc4ccccc4C3)n2)cc1
- Activity (% ALP positive colony formation by hESCs) [2]: 3.5%

SMILES: CC(C)CCNS(=O)(=O)c1ccc(Nc2nccc(N3CCc4ccccc43)n2)cc1
- Activity (% ALP positive colony formation by hESCs) [2]: 3.1%

SMILES: CNS(=O)(=O)c1ccc(Nc2nccc(N3CCCc4cc(OC)ccc43)n2)cc1
- Activity (% ALP positive colony formation by hESCs) [2]: 3.1%

SMILES: O=C(NCC1CC1)c1ccc(Nc2nccc(N3CCCc4cc(O)ccc43)n2)cc1
- Activity (% ALP positive colony formation by hESCs) [2]: 2.9%

SMILES: CNS(=O)(=O)c1ccc(Nc2nccc(N3CCCc4cc(O)ccc43)n2)cc1
- Activity (% ALP positive colony formation by hESCs) [2]: 5.7%

SMILES: COc1ccc(CNC(=O)c2csc(Nc3ccncn3)n2)cc1
- Activity (% ALP positive colony formation by hESCs) [2]: 5%

SMILES: O=S(=O)(NCC1CC1)c1ccc(Nc2nccc(N3CCCc4cc(O)ccc43)n2)cc1 [drawing 23]
- Activity (% ALP positive colony formation by hESCs) [2]: 23.2%

SMILES: O=C(NCc1ccccc1)c1csc(Nc2ccccn2)n1
- Activity (% ALP positive colony formation by hESCs) [2]: 5.2%

SMILES: O=S(=O)(NCC1CC1)c1ccc(Nc2nccc(Nc3ccccc3)n2)cc1
- Activity (% ALP positive colony formation by hESCs) [2]: 3.3%

SMILES: O=S(=O)(NCC1CC1)c1ccc(Nc2nccc(N3CCCc4ccccc43)n2)cc1
- Activity (% ALP positive colony formation by hESCs) [2]: 5.2%

SMILES: CNS(=O)(=O)c1ccc(Nc2nccc(N3CCCc4ccccc43)n2)cc1
- Activity (% ALP positive colony formation by hESCs) [2]: 3%

SMILES: CC(C)CCNS(=O)(=O)c1ccc(Nc2nccc(N3CCCc4cc(O)ccc43)n2)cc1
- Activity (% ALP positive colony formation by hESCs) [2]: 23.5%

SMILES: O=S(=O)(NCC1CC1)c1ccc(Nc2nccc(N3CCc4ccccc43)n2)cc1
- Activity (% ALP positive colony formation by hESCs) [2]: 6.1%

SMILES: O=C(NCc1ccccc1)c1csc(Nc2ccncc2)n1
- Activity (% ALP positive colony formation by hESCs) [2]: 20.3%

SMILES: CNS(=O)(=O)c1ccc(Nc2nccc(N3CCc4ccccc4C3)n2)cc1
- Activity (% ALP positive colony formation by hESCs) [2]: 3.6%

SMILES: CC(C)CCNS(=O)(=O)c1cccc(Nc2nccc(N3CCCc4cc(O)ccc43)n2)c1
- Activity (% ALP positive colony formation by hESCs) [2]: 3.1%

SMILES: O=C(NCc1ccccc1)c1csc(Nc2ccncn2)n1 [drawing 17]
- Activity (% ALP positive colony formation by hESCs) [2]: 24.1%

SMILES: CN(C)CCCn1cc(C2=C(c3c[nH]c4ccccc34)C(=O)NC2=O)c2ccccc21 [bisindolylmaleimide I, reference compound]
- effect on increased cell adhesion induced by Ptn ([7]; PKC inhibitor in combination with Ptn): could antagonize the increased cell adhesion
- effect on cell adhesion induced by Tzv ([7]; PKC inhibitor in combination with Tzv): had no effect

SMILES: O=S(=O)(NC1CC1)c1ccc(Nc2nccc(N3CCCc4cc(O)ccc43)n2)cc1
- Activity (% ALP positive colony formation by hESCs) [2]: 8%

SMILES: CC(C)CCNS(=O)(=O)c1ccc(Nc2nccc(N3CCCc4ccccc43)n2)cc1
- Activity (% ALP positive colony formation by hESCs) [2]: 3.4%

SMILES: CCCCCCCCCCCCCC(=O)O[C@@H]1[C@@H](C)[C@@]2(O)[C@@H](C=C(CO)C[C@]3(O)C(=O)C(C)=C[C@@H]23)[C@@H]2C(C)(C)[C@]12OC(C)=O [PMA, phorbol 12-myristate 13-acetate, reference compound]
- cell adhesion and colony formation of dissociated hESCs [7]: substantial increase in cell adhesion and colony formation
- integrin activation [8]: caused integrin activation

SMILES: CC(C)CCNS(=O)(=O)c1ccc(Nc2nccc(N3CCc4ccccc4C3)n2)cc1
- Activity (% ALP positive colony formation by hESCs) [2]: 3.2%

SMILES: O=C(NCc1ccccc1)c1csc(Nc2ccccc2)n1
- Activity (% ALP positive colony formation by hESCs) [2]: 4.5%

SMILES: COc1ccc2c(c1)CCCN2c1ccnc(Nc2ccc(S(=O)(=O)NCCC(C)C)cc2)n1
- Activity (% ALP positive colony formation by hESCs) [2]: 3.3%

SMILES: O=S(=O)(NC1CC1)c1ccc(Nc2nccc(N3CCCc4ccccc43)n2)cc1
- Activity (% ALP positive colony formation by hESCs) [2]: 3.1%
